Tested on: A/Switzerland/9715293/2013 (H3N2)
Type: cell-based, Influenza A virus

**Q.** Which “EC50 increase on serial passage” value does the source give for CCC(CC)O[C@@H]1C=C(C(=O)O)C[C@H](N)[C@H]1NC(C)=O [Oseltamivir carboxylate, oseltamivir carboxylate] here?
**A.** Its value is “more than ten-fold”.

Reference: paper PMC5026937 (Antiviral research, 2016)
